Tests used:
Format in all cases: in vivo
Conditions in all cases: treatment dosage 320 g/ha
soybean [1] = test: Test Example 3: soil treatment, effect on crop; d: soybean
How it was run: (§1)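 Crop and weed responses were judged three weeks after a uniform surface spray of the water-diluted emulsion at the given g/ha rate. Seeds sat beneath about 1.5 cm of sterilized diluvial soil, and boxes stood in a greenhouse at 25 to 30° C.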

bulrush [2] = test: Test Example 1: weedkilling efficacy, preemergent weed treatment in the submerged state; B: bulrush
How it was run: (§2)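 Pots of alluvial soil flooded 4 cm deep, sown with barnyard grass, bulrush and oval-leafed pondweed and transplanted with 2.5-leaf rice. Emulsified compound applied to the water surface on sowing day at stated g/ha; greenhouse 25–30 °C, effects assessed 3 weeks after treatment.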

oval-leafed pondweed [3] = test: Test Example 1: weedkilling efficacy, preemergent weed treatment in the submerged state; C: oval-leafed pondweed
How it was run: as §2

chickweed [4] = test: Test Example 4: weedkilling efficacy by foliar treatment; N: chickweed
How it was run: (§3)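 Seeds are spot-sown into sterilized diluvial soil and covered with about 1.5 cm of soil. After 14 days' greenhouse growth at 25 to 30° C, plants are sprayed on stems and leaves with diluted emulsion at the stated g/ha rate, then scored at 3 weeks.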

directly sown rice [5] = test: Test Example 3: soil treatment, effect on crop; b: directly sown rice
How it was run: as §1

black-grass [6] = test: Test Example 3: weedkilling efficacy through soil treatment; H: black-grass
How it was run: as §1

birds-eye speedwell = test: Test Example 3: weedkilling efficacy through soil treatment; p: birds-eye speedwell
How it was run: as §1

catchweed [7] = test: Test Example 3: weedkilling efficacy through soil treatment; O: catchweed
How it was run: as §1

oval-leafed pondweed [8] = test: Test Example 2: weedkilling efficacy, growth period weed treatment in the submerged state; C: oval-leafed pondweed
How it was run: (§4)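 Barnyard grass, bulrush and oval-leafed pondweed sown in alluvial soil under 4 cm flooding, greenhouse 25 to 30° C. At 1-2 leaf stage, water-diluted emulsion applied to the water surface at stated g/ha dosages; effects scored 3 weeks later.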

Indian mallow [9] = test: Test Example 3: weedkilling efficacy through soil treatment; K: Indian mallow
How it was run: as §1

chickweed [10] = test: Test Example 3: weedkilling efficacy through soil treatment; N: chickweed
How it was run: as §1

beet [11] = test: Test Example 3: soil treatment, effect on crop; f: beet
How it was run: as §1

barnyard grass [12] = test: Test Example 4: weedkilling efficacy by foliar treatment; F: barnyard grass
How it was run: as §3

bulrush [13] = test: Test Example 2: weedkilling efficacy, growth period weed treatment in the submerged state; B: bulrush
How it was run: as §4

wild oat [14] = test: Test Example 3: weedkilling efficacy through soil treatment; G: wild oat
How it was run: as §1

redroot pigweed [15] = test: Test Example 4: weedkilling efficacy by foliar treatment; L: redroot pigweed
How it was run: as §3

redroot pigweed [16] = test: Test Example 3: weedkilling efficacy through soil treatment; L: redroot pigweed
How it was run: as §1

crabgrass [17] = test: Test Example 3: weedkilling efficacy through soil treatment; D: crabgrass
How it was run: as §1

fig-leafed goosefoot [18] = test: Test Example 3: weedkilling efficacy through soil treatment; M: fig-leafed goosefoot
How it was run: as §1

wheat [19] = test: Test Example 4: foliar treatment, effect on crop; e: wheat
How it was run: as §3

green foxtail [20] = test: Test Example 4: weedkilling efficacy by foliar treatment; E: green foxtail
How it was run: as §3

wheat [21] = test: Test Example 3: soil treatment, effect on crop; e: wheat
How it was run: as §1

crabgrass [22] = test: Test Example 4: weedkilling efficacy by foliar treatment; D: crabgrass
How it was run: as §3

transplanted rice = test: Test Example 1: preemergent weed treatment in the submerged state, effect on crop; a: transplanted rice
How it was run: as §2

barnyard grass [23] = test: Test Example 1: weedkilling efficacy, preemergent weed treatment in the submerged state; A: barnyard grass
How it was run: as §2

rapeseed [24] = test: Test Example 4: foliar treatment, effect on crop; g: rapeseed
How it was run: as §3

Italian ryegrass [25] = test: Test Example 4: weedkilling efficacy by foliar treatment; I: Italian ryegrass
How it was run: as §3

common wind-grass [26] = test: Test Example 3: weedkilling efficacy through soil treatment; J: common wind-grass
How it was run: as §1

Italian ryegrass [27] = test: Test Example 3: weedkilling efficacy through soil treatment; I: Italian ryegrass
How it was run: as §1

beet [28] = test: Test Example 4: foliar treatment, effect on crop; f: beet
How it was run: as §3

common wind-grass [29] = test: Test Example 4: weedkilling efficacy by foliar treatment; J: common wind-grass
How it was run: as §3

barnyard grass [30] = test: Test Example 2: weedkilling efficacy, growth period weed treatment in the submerged state; A: barnyard grass
How it was run: as §4

soybean [31] = test: Test Example 4: foliar treatment, effect on crop; d: soybean
How it was run: as §3

corn [32] = test: Test Example 4: foliar treatment, effect on crop; c: corn
How it was run: as §3

barnyard grass [33] = test: Test Example 3: weedkilling efficacy through soil treatment; F: barnyard grass
How it was run: as §1

black-grass [34] = test: Test Example 4: weedkilling efficacy by foliar treatment; H: black-grass
How it was run: as §3

directly sown rice [35] = test: Test Example 4: foliar treatment, effect on crop; b: directly sown rice
How it was run: as §3

green foxtail [36] = test: Test Example 3: weedkilling efficacy through soil treatment; E: green foxtail
How it was run: as §1

corn [37] = test: Test Example 3: soil treatment, effect on crop; c: corn
How it was run: as §1

catchweed [38] = test: Test Example 4: weedkilling efficacy by foliar treatment; O: catchweed
How it was run: as §3

fig-leafed goosefoot [39] = test: Test Example 4: weedkilling efficacy by foliar treatment; M: fig-leafed goosefoot
How it was run: as §3

rapeseed [40] = test: Test Example 3: soil treatment, effect on crop; g: rapeseed
How it was run: as §1

Indian mallow [41] = test: Test Example 4: weedkilling efficacy by foliar treatment; K: Indian mallow
How it was run: as §3

wild oat [42] = test: Test Example 4: weedkilling efficacy by foliar treatment; G: wild oat
How it was run: as §3

CC1=C(c2ccccc2)C(=O)N(C(C)(C)C(=O)Nc2cc(C)cc(Cl)n2)CO1 [B-2-43]
d (soybean) effect on crop grade (soybean [1]): 2 (weed kill ratio 20% or more, less than 40%)
B (bulrush) weedkilling efficacy grade (bulrush [2]): 5 (weed kill ratio 90% or more, (practically complete withering))
C (oval-leafed pondweed) weedkilling efficacy grade (oval-leafed pondweed [3]): 5 (weed kill ratio 90% or more, (practically complete withering))
N (chickweed) weedkilling efficacy grade (chickweed [4]): 3 (weed kill ratio 40% or more, less than 70%)
b (directly sown rice) effect on crop grade (directly sown rice [5]): 3 (weed kill ratio 40% or more, less than 70%)
H (black-grass) weedkilling efficacy grade (black-grass [6]): 5 (weed kill ratio 90% or more, (practically complete withering))
P (birds-eye speedwell) weedkilling efficacy grade (birds-eye speedwell): 5 (weed kill ratio 90% or more, (practically complete withering))
O (catchweed) weedkilling efficacy grade (catchweed [7]): 4 (weed kill ratio 70% or more, less than 90%)
C (oval-leafed pondweed) weedkilling efficacy grade (oval-leafed pondweed [8]): 5 (weed kill ratio 90% or more, (practically complete withering))
K (Indian mallow) weedkilling efficacy grade (Indian mallow [9]): 0 (weed kill ratio 5% or less (practically no effect))
N (chickweed) weedkilling efficacy grade (chickweed [10]): 4 (weed kill ratio 70% or more, less than 90%)
f (beet) effect on crop grade (beet [11]): 4 (weed kill ratio 70% or more, less than 90%)
F (barnyard grass) weedkilling efficacy grade (barnyard grass [12]): 5 (weed kill ratio 90% or more, (practically complete withering))
B (bulrush) weedkilling efficacy grade (bulrush [13]): 5 (weed kill ratio 90% or more, (practically complete withering))
G (wild oat) weedkilling efficacy grade (wild oat [14]): 5 (weed kill ratio 90% or more, (practically complete withering))
L (redroot pigweed) weedkilling efficacy grade (redroot pigweed [15]): 3 (weed kill ratio 40% or more, less than 70%)
L (redroot pigweed) weedkilling efficacy grade (redroot pigweed [16]): 3 (weed kill ratio 40% or more, less than 70%)
D (crabgrass) weedkilling efficacy grade (crabgrass [17]): 5 (weed kill ratio 90% or more, (practically complete withering))
M (fig-leafed goosefoot) weedkilling efficacy grade (fig-leafed goosefoot [18]): 3 (weed kill ratio 40% or more, less than 70%)
e (wheat) effect on crop grade (wheat [19]): 0 (weed kill ratio 5% or less (practically no effect))
E (green foxtail) weedkilling efficacy grade (green foxtail [20]): 5 (weed kill ratio 90% or more, (practically complete withering))
e (wheat) effect on crop grade (wheat [21]): 1 (weed kill ratio 5% or more, less than 20%)
D (crabgrass) weedkilling efficacy grade (crabgrass [22]): 5 (weed kill ratio 90% or more, (practically complete withering))
a (transplanted rice) effect on crop grade (transplanted rice): 3 (weed kill ratio 40% or more, less than 70%)
A (barnyard grass) weedkilling efficacy grade (barnyard grass [23]): 5 (weed kill ratio 90% or more, (practically complete withering))
g (rapeseed) effect on crop grade (rapeseed [24]): 4 (weed kill ratio 70% or more, less than 90%)
I (Italian ryegrass) weedkilling efficacy grade (Italian ryegrass [25]): 5 (weed kill ratio 90% or more, (practically complete withering))
J (common wind-grass) weedkilling efficacy grade (common wind-grass [26]): 5 (weed kill ratio 90% or more, (practically complete withering))
I (Italian ryegrass) weedkilling efficacy grade (Italian ryegrass [27]): 5 (weed kill ratio 90% or more, (practically complete withering))
f (beet) effect on crop grade (beet [28]): 3 (weed kill ratio 40% or more, less than 70%)
J (common wind-grass) weedkilling efficacy grade (common wind-grass [29]): 5 (weed kill ratio 90% or more, (practically complete withering))
A (barnyard grass) weedkilling efficacy grade (barnyard grass [30]): 5 (weed kill ratio 90% or more, (practically complete withering))
d (soybean) effect on crop grade (soybean [31]): 4 (weed kill ratio 70% or more, less than 90%)
c (corn) effect on crop grade (corn [32]): 3 (weed kill ratio 40% or more, less than 70%)
F (barnyard grass) weedkilling efficacy grade (barnyard grass [33]): 5 (weed kill ratio 90% or more, (practically complete withering))
H (black-grass) weedkilling efficacy grade (black-grass [34]): 5 (weed kill ratio 90% or more, (practically complete withering))
b (directly sown rice) effect on crop grade (directly sown rice [35]): 5 (weed kill ratio 90% or more, (practically complete withering))
E (green foxtail) weedkilling efficacy grade (green foxtail [36]): 4 (weed kill ratio 70% or more, less than 90%)
c (corn) effect on crop grade (corn [37]): 0 (weed kill ratio 5% or less (practically no effect))
O (catchweed) weedkilling efficacy grade (catchweed [38]): 1 (weed kill ratio 5% or more, less than 20%)
M (fig-leafed goosefoot) weedkilling efficacy grade (fig-leafed goosefoot [39]): 4 (weed kill ratio 70% or more, less than 90%)
g (rapeseed) effect on crop grade (rapeseed [40]): 4 (weed kill ratio 70% or more, less than 90%)
K (Indian mallow) weedkilling efficacy grade (Indian mallow [41]): 3 (weed kill ratio 40% or more, less than 70%)
G (wild oat) weedkilling efficacy grade (wild oat [42]): 3 (weed kill ratio 40% or more, less than 70%)
